Results on five molecules are retold here after US8633168B2, “Inhibitors of S-adenosyl-L-methionine decarboxylase” (Genzyme Corporation, priority 2007, dated 2014).

Data set [1] in a line: Solubility in phosphate buffer. In kind it is physicochemical. The settings on record: for Sol.: Table 2, @ 7.4; for solubility at 16 hours: phosphate buffer. How it is done: A stock solution for each test compound was prepared at 25 mM in DMSO. These were diluted into phosphate buffer and equilibrated for 16 hours at room temperature, and then filtered to remove precipitated compound. The UV absorbance of this equilibrated sample was compared to a single point reference standard.

Data set [2] is described as follows: Microsomal stability, rat. In kind it is in vitro ADME. Conditions: for Microsomal stability (CL) rat: Table 2; for CLint scaled: Example 12 chart. How it is done:
(§1) Liver microsomes and hepatocytes represent an in vitro surrogate for assessing the phase I/II metabolic stability of new discovery leads. Following the incubation of the compounds with microsomes or hepatocytes of different species (e.g., human, rat, dog, monkey, mouse), the samples were transferred to 96 well plates for quantitation using LC/MS/MS. The % of compound remaining was measured and used to calculate clearance and % hepatic blood flow.

The nature of data set [3]: Permeability through lipid soaked artificial membrane. In kind it is in vitro ADME. Conditions: for Perm.: Table 2; for Papp: PAMPA. How it is done: A stock solution for each test compound was prepared at 10 mM in DMSO. These were diluted into phosphate buffer and placed on one side (donor) of a two chamber microtiter plate separated by a lipid soaked membrane. With time, the compound passively diffused across the membrane barrier and the concentration in the second chamber (acceptor) increases. At the end of the experiment, drug concentration was determined in both the donor and acceptor solutions by UV absorbance. The permeability was calculated from the change in concentration, surface area, and incubation time.

In a further data set the target is T1, T. brucei SAM DC (Trypanosoma brucei brucei, UniProt P50244).
T1 construct: made in house
T1 sequence (P50244 86-370 limits assumed): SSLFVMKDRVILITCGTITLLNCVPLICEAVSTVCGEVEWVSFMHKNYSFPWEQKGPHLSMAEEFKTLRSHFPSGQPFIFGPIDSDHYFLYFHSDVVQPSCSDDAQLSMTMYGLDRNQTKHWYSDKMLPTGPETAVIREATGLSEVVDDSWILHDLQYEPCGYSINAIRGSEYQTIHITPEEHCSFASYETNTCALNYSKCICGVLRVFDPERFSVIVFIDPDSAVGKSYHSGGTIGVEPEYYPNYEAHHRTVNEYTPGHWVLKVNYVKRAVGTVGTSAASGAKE
The data set is described as follows: SAMDC enzyme inhibition assay (14CO2 release from 14C-AdoMet). In kind it is biochemical. The settings on record: Table 1; read-out: kinact/Ki^app against SAM DC enzyme by SW (converted). On the procedure:
Steady state kinetics were performed as described (Kinch, L. N., J. R. Scott, B. Ullman, and M. A. Phillips. “Cloning and Kinetic Characterization of the Trypanosoma Cruzi S-Adenosylmethionine Decarboxylase.” Mol Biochem Parasitol 101, no. 1-2 (1999): 1-11. Beswick, T. C., E. K. Willert, and M. A. Phillips. “Mechanisms of Allosteric Regulation of Trypanosoma Cruzi S-Adenosylmethionine Decarboxylase.” Biochemistry 45, no. 25 (2006): 7797-807.). This assay measures the amount of ^14CO2 elaborated by enzymatic cleavage of ^14C-AdoMet. Reactions were carried out in assay buffer (100 mM Hepes pH 8.0, 50 mM NaCl, and 1 mM DTT) using the AdoMetDC/AdoMetDC Prozyme complex at ^14C-AdoMet concentrations of 10-160 μM with saturating putrescine (5 mM) (Willert E K, Phillips M A, 2007. “Allosteric regulation of an essential trypanosome polyamine biosynthetic enzyme by a catalytically dead homolog”. Proc Natl Acad Sci USA 104: 8275-8280). The reaction components were added to a test tube on ice to a total final volume of 100 μl. The reaction was initiated by the addition of enzyme (1-4 μM for T. brucei SAM DC), and a piece of filter paper soaked in saturated barium hydroxide was hung on the side of the test tube, which was then capped with a rubber stopper. Reactions were incubated at 37° C. in a water bath for 5-40 minutes. The assay was stopped by the addition of 200 μl 6 M HCl. The quenched reaction was kept at 37° C. for at least 30 minutes to allow for evolution of the CO2 from the solution. The filter paper was then added to 5 ml of scintillation fluid and counted. Test compounds were assessed over a range of 4 concentrations. Kinetic and regression analysis were performed using GraphPad Prism™.
Purified, recombinant T. brucei SAM-decarboxylase and its prozyme are prepared and assayed in the laboratory of Dr. Phillips according to procedures from that lab. Kinch L N, Scott J R, Ullman B, Phillips M A, “Cloning and kinetic characterization of the Trypanosoma cruzi S-adenosylmethionine decarboxylase,” Mol Biochem Parasitol 101: 1-11. Willert E K, Fitzpatrick R, Phillips M A, 2007 (1999). Briefly, the assay employs ^14C-labelled S-adenosyl methionine (^14C-AdoMet). Reactions are carried out in buffer (100 mM Hepes pH 8.0, 50 mM NaCl, and 5 mM DTT) at ^14C-AdoMet concentrations of 10-160 μM with saturating putrescine (5 mM). The reaction components are added to a test tube on ice to a total final volume of 100 μl. The reaction is initiated by the addition of enzyme (1-4 μM for T. brucei SAM DC), and a piece of filter paper soaked in saturated barium hydroxide is hung on the side of the test tube, which is then capped with a rubber stopper. Reactions are incubated at 37° C. in a water bath for 5-40 minutes. The assay is stopped by the addition of 200 μl 6 M HCl. The quenched reaction is kept at 37° C. for at least 30 minutes to allow for evolution of the CO2 from the solution. The filter paper is then added to 5 ml of scintillation fluid and counted. Test compounds were assessed over a range of 4 concentrations. Kinetic and regression analysis are performed using GraphPad Prism.™ Results of this test are exemplified in FIG. 4.

A further data set deals with T. cruzi. Nature of the data set: Cell-based screening against T. cruzi. The settings on record: Trypanosoma cruzi; Screening Data.
A further data set concerns the target CYP2C9 (Homo sapiens, UniProt P11712). Nature of the data set: Cytochrome P450 inhibition, CYP2C9. The text has this: This cytochrome P450 high throughput IC50 inhibition assay is utilized for screening potential inhibitors of the 5 major human CYP isozyme catalytic activities (CYP3A4, 2D6, 2C9, 2C19, and 1A2).
The nature of data set [4]: Plasma protein binding (RED), human. Type of data set: in vitro ADME. On the procedure:
Rapid Equilibrium Dialysis device (RED) is a 96-well formatted dialysis with disposable inserts and Teflon base design providing short incubation time. The membrane in RED physically separates of bound and free drug. After 4 hr incubation at 37° C., drug concentrations at both plasma (e.g., human, rat, dog, monkey, mouse) and pH 7.4 PBS buffer sides was quantitated by LC/MS/MS and % bound drug in plasma was calculated.

A short description of data set [5]: Hepatocyte stability, human. Type of data set: in vitro ADME. The settings on record: for Hepatocyte stability (CL) human: Table 2; for CLint scaled: hepatocytes, Example 12 chart. How it is done: as §1
Where [6] appears, read: aqueous buffer, kinetic from dmso stock, Example 12 chart, pH 7.4.
Where [7] appears, read: plasma, pH 7.4, Example 12 chart, human.
[8] abbreviates: read-out: CYP IC50 2C9, Example 12 chart.

Like-named read-outs stand apart in the source and are kept apart here.

CYP2C9, sequence (P11712 whole entry): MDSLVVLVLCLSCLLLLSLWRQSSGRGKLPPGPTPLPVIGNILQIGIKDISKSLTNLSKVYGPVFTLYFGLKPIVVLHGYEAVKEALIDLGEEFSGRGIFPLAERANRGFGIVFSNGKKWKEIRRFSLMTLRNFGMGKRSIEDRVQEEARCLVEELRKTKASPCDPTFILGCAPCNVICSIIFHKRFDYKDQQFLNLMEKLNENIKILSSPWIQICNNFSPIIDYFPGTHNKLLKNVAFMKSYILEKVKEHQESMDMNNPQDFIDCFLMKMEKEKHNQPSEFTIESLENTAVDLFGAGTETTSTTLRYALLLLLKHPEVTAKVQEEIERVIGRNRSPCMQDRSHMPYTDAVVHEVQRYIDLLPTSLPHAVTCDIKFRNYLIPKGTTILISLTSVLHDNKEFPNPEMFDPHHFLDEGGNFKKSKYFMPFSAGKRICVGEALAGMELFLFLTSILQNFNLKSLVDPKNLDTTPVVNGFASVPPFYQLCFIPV

Consider `CN(C/C=C\CN)C[C@H]1O[C@@H](n2cnc3c(N)ncnc32)[C@H](F)[C@@H]1O` (stereo in doubt) [Compound 1], for which the Sol. in data set [1] was >47 (@ 7.4) ug/ml. The solubility at 16 hours in [1] (setting [6]) is more than 47 µg/mL. Besides, the “Microsomal stability (CL) rat” value in [2] is less than 11 mL/min/kg. The intrinsic metabolic clearance (CLint scaled) in [2] (liver microsomes) was less than 7.7 mL/min/kg; in data set [5], less than 1.7 mL/min/kg. Besides, in data set [3], the Perm. was 0.00 10-6 cm/s. In addition, at T. brucei SAM DC, the kinact/KI is 3200 M⁻¹ s⁻¹. Moreover, the half-inhibitory concentration (IC50) in the data set on T. cruzi is more than 85 µM; at CYP2C9 (human, probe fluorometric substrates (not named)), more than 5 µM. Moreover, the pH-dependent lipophilicity (logD) in “LogD” is -1.3. For the same molecule, the “Plasma Protein Binding % human” value in data set [4] (Table 2, human plasma) is recorded as 23.3%. The molecule also showed a fraction unbound at 4 hr in data set [4] (setting [7]) of 0.767. Further, the “Hepatocyte stability (CL) human” value in data set [5] is recorded as less than 4.2 mL/min/kg.
`Cc1nc2c(N)ncnc2n1[C@@H]1O[C@H](CN(C)C/C=C\CN)[C@@H](O)[C@H]1O` (stereo in doubt) [Compound 4]: the Sol. in [1] is >49 (@ 7.4) ug/ml. In data set [1] (setting [6]), this molecule came in with a solubility at 16 hours of more than 49 µg/mL. In addition, in data set [2], the “Microsomal stability (CL) rat” value was less than 11 mL/min/kg. For the same molecule, the intrinsic metabolic clearance (CLint scaled) in data set [2] (liver microsomes) was less than 7.7 mL/min/kg; in [5], less than 1.7 mL/min/kg. Moreover, in data set [3] (Example 12 chart), the apparent permeability coefficient (Papp) amounted to 0.22 ×10⁻⁶ cm/s. The Perm. in data set [3] is 0.22 10-6 cm/s. The kinact/KI at T. brucei SAM DC was 130000 M⁻¹ s⁻¹. The IC50 with T. cruzi was more than 85 µM; on CYP2C9, more than 5 µM; on CYP2C9 (setting [8]) it was more than 5 µM. In addition, the logD in the data set “LogD” (Example 12 chart) is reported as −1.4. Moreover, the “Plasma Protein Binding % human” value in [4] (Example 12 chart, human) worked out at 41.2%. Also, the “protein binding relative to MDL73811” value in [4] (compared with MDL73811 (human and mouse plasma in Table 2)) was “approximately half”. The molecule further gave a free fraction (fraction unbound) at 4 hr in data set [4] (pH 7.4, Table 2, human plasma) of 0.588. The “Hepatocyte stability (CL) human” value in [5] is less than 4.2 mL/min/kg.
For the molecule `CN(C/C=C\CN)C[C@H]1O[C@@H](n2cnc3c(N)ncnc32)[C@@H](F)[C@@H]1O` [Compound 2], in data set [1], the Sol. is reported as >47 (@ 7.4) ug/ml. The same molecule came in with a solubility at 16 hours in [1] (setting [6]) of more than 47 µg/mL. In addition, the “Microsomal stability (CL) rat” value in data set [2] is reported as less than 11 mL/min/kg. In addition, the CLint scaled is less than 7.7 mL/min/kg in data set [2] (liver microsomes) and less than 1.7 mL/min/kg in [5]. The Perm. in data set [3] was 0.00 10-6 cm/s. Besides, the kinact/KI at T. brucei SAM DC was 32700 M⁻¹ s⁻¹. The IC50 is more than 85 µM in the data set with T. cruzi, more than 5 µM against CYP2C9 and more than 5 µM at CYP2C9 (setting [8]). For the same molecule, in “LogD”, the log distribution coefficient (logD) is -1.2. Moreover, the “Plasma Protein Binding % human” value in data set [4] (Table 2, human plasma) came to 32.2%. Also, the fraction unbound at 4 hr in data set [4] (setting [7]) was 0.678. Further, the “Hepatocyte stability (CL) human” value in data set [5] was less than 4.2 mL/min/kg.
For the molecule `CN(C/C=C\CN)C[C@H]1O[C@@H](n2cnc3c(N)nc(Cl)nc32)[C@H](O)[C@@H]1O` [Compound 3], the Sol. in data set [1] is recorded as >51 (@ 7.4) ug/ml. Moreover, the solubility at 16 hours in [1] (setting [6]) is more than 51 µg/mL. In addition, the “Microsomal stability (CL) rat” value in data set [2] is on record as less than 11 mL/min/kg. In addition, the intrinsic clearance (CLint scaled) was less than 7.7 mL/min/kg in data set [2] (liver microsomes) and less than 1.7 mL/min/kg in data set [5]. The Permeability in [3] (Example 12 chart) is listed as 0.36 10−6 cm/sec. For the same molecule, the Perm. in data set [3] was 0.36 10-6 cm/s. At T. brucei SAM DC, the kinact/KI is 300 M⁻¹ s⁻¹. The half-inhibitory concentration (IC50) was more than 85 µM in the data set on T. cruzi, more than 5 µM on CYP2C9 and more than 5 µM at CYP2C9 (setting [8]). In addition, the “Plasma Protein Binding % human” value in data set [4] (Example 12 chart, human) came to 39%. Besides, in data set [4] (pH 7.4, Table 2, human plasma), the fraction unbound at 4 hr was 0.61. The “Hepatocyte stability (CL) human” value in data set [5] was less than 4.2 mL/min/kg.
`CN(C/C=C\CN)CC1OC(n2cnc3c(N)ncnc32)C(O)C1O` (centres unmarked) [MDL-73811, reference compound]: the Sol. in data set [1] was >47 (@ 7.4) ug/ml. In [1] (setting [6]), this molecule registered a solubility of more than 47 µg/mL. Further, in data set [2], the “Microsomal stability (CL) rat” value is listed as less than 11 mL/min/kg. Besides, the CLint scaled was less than 7.7 mL/min/kg in [2] (microsomes) and less than 1.7 mL/min/kg in [5]. The molecule also registered an apparent permeability coefficient (Papp) in data set [3] (Example 12 chart) of 1.1 ×10⁻⁶ cm/s. Also, the Perm. in data set [3] is 0.13 10-6 cm/s. Besides, the kinact/KI on T. brucei SAM DC was 24900 M⁻¹ s⁻¹. Moreover, the IC50 was 19.4 µM with T. cruzi, more than 5 µM at CYP2C9 and more than 5 µM at CYP2C9 (setting [8]). The “Plasma Protein Binding % human” value in data set [4] (Example 12 chart, human) came out at 72.9%. Moreover, in [4] (pH 7.4, Table 2, human plasma), the fraction unbound is 0.271. In addition, the “Hepatocyte stability (CL) human” value in data set [5] is given as less than 4.2 mL/min/kg.
